The text below walks through data of patent US10167256B2, “Psychotrophic agents and uses thereof” (LB PHARMACEUTICALS INC., priority 2016, dated 2019).

pIC50, pKi: −log10 of the molar value.

For series [1] the following is noted: PAMPA. (The PAMPA barrier holds no transporters, so it reflects passive diffusion.)
The next series addresses D1 receptor (Homo sapiens (Human), UniProt P21728). The following applies: cited from earlier work.
The next series has as its target D4 receptor (Homo sapiens (Human), UniProt P21917). The following applies: cited from earlier work.
The next series addresses D5 receptor (Homo sapiens (Human), UniProt P21918). The following applies: cited from earlier work.
Another series addresses 5-HT2a receptor (Homo sapiens (Human), UniProt P28223). The following applies: cited from earlier work.
Series [2] concerns serotonin receptor subtypes. The settings on record: cited from earlier work.
In series [3] the test system is alpha-adrenergic receptor subtypes. The following applies: cited from earlier work.
In series [4] the test system is histamine receptor subtypes. The settings on record: cited from earlier work.
Another series relates to muscarinic receptors. The settings on record: cited from earlier work.
The test system of a further series is sigma sites. The settings on record: cited from earlier work.
The conditions of series [5]: 2014 study, 30 psychiatric drugs; cited from earlier work.
Another series in a line: in vitro. The settings on record: PAMPA.
The target in series [6] is T1, dopamine D2 receptors (Homo sapiens (Human), UniProt P14416). Description: Dopamine D2 receptor cell-based assay (calcium fluorescence, dopamine at EC80).
Method: Dopamine D2 receptor cells were seeded in a half a black, clear-bottomed 96 well plate. At a density of 15,000 cells/well to a volume of 25 μL and were left to incubate overnight. Calcium 5 dye in HEPES buffered HBSS (Hanks' balanced salt solution) was prepared and 10 μL was added to each well and the mixture was left to sit at 37° C. for 1 hour. After equilibration, 5 μL of the test compound and controls were added to the wells and incubated at room temperature for 10 minutes.
For series [7], the target named is T1, dopamine D2 receptors. Description: Dopamine D2 receptor membrane preparation, 3H spiperone binding. The settings on record: membrane based assay, 0.1 nM 3H spiperone. The method, then: Radioactivity was measured using a Packard Topcount.
In another series the target is α2 (non-selective). In words: Reference ligand displacement, α2 (non-selective). Format: binding. The following applies: α-2A (non-selective); reference ligand prazosin. The method, then: (§1) The ability of Compound 102 and 103 to bind α2 (non-selective), α2A, α2B, α2C, 5-HT2A (agonist), 5-HT2A (antagonist), D2L, D2S, and D3 was measured at concentrations ranging from 10×10^−5 to 10×10^−9 M and measuring displacement of reference ligands (prazosin for α2 (non-selective), yohimbine for α2A, α2B and α2C, DOI ([2,5-dimethoxy-4-iodophenyl]-2-aminopropane) for 5-HT2A (agonist), ketanserine for 5-HT2A (antagonist), butaclamol for D2L, 7-OH-DPAT for D2S, and (+) blutaclamol for D3). bound to the respective isolated receptor.

The target of a further series is α-2A(h) (Homo sapiens (Human), UniProt P08913). Description: Reference ligand displacement, α2A. The following applies: yohimbine. Format: binding. On the procedure: as §1
A further series has as its target α-2B(h) (Homo sapiens (Human), UniProt P18089). Description: Reference ligand displacement, α2B. Format: binding. The settings on record: yohimbine. The method, then:
as §1

The target in a further series is α-2C(h) (Homo sapiens (Human), UniProt P18825). In words: Reference ligand displacement, α2C. Format: binding. The settings on record: yohimbine. On the procedure: as §1
A further series concerns the target 5-HT2a (agonist) (Homo sapiens (Human), UniProt P28223). Description: Reference ligand displacement, 5-HT2A (agonist). Format: binding. The settings on record: DOI. On the procedure:
as §1

The next series addresses 5-HT2a (antagonist) (Homo sapiens (Human), UniProt P28223). In words: Reference ligand displacement, 5-HT2A (antagonist). Format: binding. The following applies: ketanserine. On the procedure: as §1
The target of the next series is 5-HT7 (Homo sapiens (Human), UniProt P34969). Description: Reference ligand displacement, 5-HT7. Format: binding.
The target of a further series is D2L (Homo sapiens (Human), UniProt P14416). Description: Reference ligand displacement, D2L. Format: binding. The following applies: butaclamol. On the procedure: as §1
The next series has as its target D2S (Homo sapiens (Human), UniProt P14416). Description: Reference ligand displacement, D2S. Format: binding. The settings on record: 7-OH-DPAT. On the procedure: as §1
The target in the next series is D3 (Homo sapiens (Human), UniProt P35462). In words: Reference ligand displacement, D3. Format: binding. The settings on record: (+) butaclamol. The method, then:
as §1

The test system of another series is PCP-treated rats. In words: Novel Object Recognition (NOR) assay, sub-chronic PCP. Format: in vivo. The following applies: PO; for difference between novel and familiar object exploration time: 3 hours post-dose, all doses save one; for known object exploration behavior in rats treated with PCP: compared with untreated rats, amisulpride and risperidone. On the procedure: Efficacy of Compounds 102 and 103 was evaluated in rats in a Novel Object Recognition (NOR) assay, a well-established model recapitulating cognitive and negative aspects of the PANSS scale of schizophrenia. In this assay, animals were treated for several weeks with a low dose of phencyclidine (PCP) to impair the ability of the rat to discern between novel and familiar objects. Typically rats, like humans, would spend more time exploring a novel object than a familiar one.
Rats (n=10/group) were dosed with 2 mg/kg intraperitoneal twice a day (i.p., b.i.d.) for seven days followed by 7 days drug free. […] Novel object exploration time was measured for the test subjects from a sub-chronic PCP NOR study in rats (n=10/group). The differences in exploration time between novel (Tnovel¬) and familiar (Tfamliar) objects are depicted in FIG. 1A (*: p<0.05; and *: p<0.01).

The subject of series [8] is rats dosed with amphetamine. In words: Amphetamine-induced Locomotor Activity (LMA) assay. Format: in vivo. The settings on record: 30 mg/kg orally, 6 hours post dosing, total ambulatory distance over 1 hour. The method, then: Efficacy of Compounds 102 and 103 was studied in rats in an amphetamine-induced Locomotor Activity (LMA) assay, a measure of positive aspects of the PANSS scale. In the LMA assay rats were dosed with amphetamine (Amp, 1 mg/kg, s.c.), causing excessive movement, in a cage with sensors that monitored how far each rat moved.
Distance moved, over the course of an hour, was measured 6 hours post dosing for Compounds 102 and 103 and amisulpride-risperidone was dosed 1 hour prior to measurement. The endpoint of this study was total ambulatory distance (the distance traveled by each animal in the cage). Total ambulatory distance data from this amphetamine induced LMA study are summarized in FIG. 2 (*: p<0.01; *: p<0.05).

D2L, sequence (P14416 whole entry): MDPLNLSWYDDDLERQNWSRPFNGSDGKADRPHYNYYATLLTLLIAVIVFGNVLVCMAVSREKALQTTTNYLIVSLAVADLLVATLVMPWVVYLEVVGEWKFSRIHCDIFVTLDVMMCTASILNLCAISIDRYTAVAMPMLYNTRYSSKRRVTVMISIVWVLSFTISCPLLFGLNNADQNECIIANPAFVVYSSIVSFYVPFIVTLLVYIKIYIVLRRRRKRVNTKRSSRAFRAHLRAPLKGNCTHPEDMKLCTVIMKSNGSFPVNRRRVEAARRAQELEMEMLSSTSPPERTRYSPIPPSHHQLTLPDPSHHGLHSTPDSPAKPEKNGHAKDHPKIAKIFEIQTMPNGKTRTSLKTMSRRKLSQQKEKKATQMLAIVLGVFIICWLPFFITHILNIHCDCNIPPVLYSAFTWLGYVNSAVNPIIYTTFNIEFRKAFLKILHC
D2S, sequence (P14416 other isoform, or with tags, fused parts or gaps): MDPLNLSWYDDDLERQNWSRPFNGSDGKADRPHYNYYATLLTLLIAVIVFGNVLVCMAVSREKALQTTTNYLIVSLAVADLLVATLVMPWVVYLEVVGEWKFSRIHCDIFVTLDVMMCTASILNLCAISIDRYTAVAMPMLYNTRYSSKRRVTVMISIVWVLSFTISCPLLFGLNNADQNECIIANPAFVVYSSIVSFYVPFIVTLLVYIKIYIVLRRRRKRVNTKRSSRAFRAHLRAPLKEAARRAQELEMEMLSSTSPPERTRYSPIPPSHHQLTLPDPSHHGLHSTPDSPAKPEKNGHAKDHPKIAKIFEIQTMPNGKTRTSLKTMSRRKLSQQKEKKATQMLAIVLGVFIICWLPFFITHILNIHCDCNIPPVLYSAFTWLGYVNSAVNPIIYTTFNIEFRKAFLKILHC
D3, sequence (P35462 whole entry): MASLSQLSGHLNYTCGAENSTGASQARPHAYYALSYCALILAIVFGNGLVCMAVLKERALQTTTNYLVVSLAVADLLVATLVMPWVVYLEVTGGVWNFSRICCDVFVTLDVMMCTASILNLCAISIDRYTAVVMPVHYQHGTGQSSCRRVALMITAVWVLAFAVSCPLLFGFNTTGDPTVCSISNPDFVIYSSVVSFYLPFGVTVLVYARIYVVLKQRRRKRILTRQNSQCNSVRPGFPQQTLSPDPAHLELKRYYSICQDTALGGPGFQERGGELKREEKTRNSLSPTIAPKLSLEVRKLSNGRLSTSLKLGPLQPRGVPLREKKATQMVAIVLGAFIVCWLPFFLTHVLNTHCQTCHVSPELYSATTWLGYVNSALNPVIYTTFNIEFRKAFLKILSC
5-HT2a (agonist), sequence (P28223 whole entry, species assumed): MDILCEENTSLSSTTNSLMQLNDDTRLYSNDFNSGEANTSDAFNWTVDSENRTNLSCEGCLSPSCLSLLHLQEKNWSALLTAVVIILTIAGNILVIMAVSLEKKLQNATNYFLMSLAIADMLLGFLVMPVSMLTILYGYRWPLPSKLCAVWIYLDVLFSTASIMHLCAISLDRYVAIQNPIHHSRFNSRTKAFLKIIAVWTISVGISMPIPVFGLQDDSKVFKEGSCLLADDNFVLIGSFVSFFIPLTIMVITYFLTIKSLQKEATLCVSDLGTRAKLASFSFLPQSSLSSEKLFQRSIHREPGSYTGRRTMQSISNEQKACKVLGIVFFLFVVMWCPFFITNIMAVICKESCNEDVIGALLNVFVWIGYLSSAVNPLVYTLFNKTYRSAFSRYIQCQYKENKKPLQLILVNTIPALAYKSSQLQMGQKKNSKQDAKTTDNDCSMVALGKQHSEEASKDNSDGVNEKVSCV
5-HT2a (antagonist), sequence (P28223 whole entry, species assumed): as above
T1 sequence (P14416 whole entry): as the sequence (P14416 whole entry) above
α-2B(h), sequence (P18089 whole entry): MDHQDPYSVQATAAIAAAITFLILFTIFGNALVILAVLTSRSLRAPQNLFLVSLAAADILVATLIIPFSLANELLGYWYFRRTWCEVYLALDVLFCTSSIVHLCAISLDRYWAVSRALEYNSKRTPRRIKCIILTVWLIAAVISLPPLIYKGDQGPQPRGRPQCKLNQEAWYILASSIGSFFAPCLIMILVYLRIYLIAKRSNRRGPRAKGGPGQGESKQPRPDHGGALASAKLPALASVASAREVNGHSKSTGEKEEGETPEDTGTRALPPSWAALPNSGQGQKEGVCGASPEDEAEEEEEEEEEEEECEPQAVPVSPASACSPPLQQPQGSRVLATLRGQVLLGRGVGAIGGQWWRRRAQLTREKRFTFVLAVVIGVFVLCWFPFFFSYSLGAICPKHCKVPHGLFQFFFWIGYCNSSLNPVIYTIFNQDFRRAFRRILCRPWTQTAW
α-2C(h), sequence (P18825 whole entry): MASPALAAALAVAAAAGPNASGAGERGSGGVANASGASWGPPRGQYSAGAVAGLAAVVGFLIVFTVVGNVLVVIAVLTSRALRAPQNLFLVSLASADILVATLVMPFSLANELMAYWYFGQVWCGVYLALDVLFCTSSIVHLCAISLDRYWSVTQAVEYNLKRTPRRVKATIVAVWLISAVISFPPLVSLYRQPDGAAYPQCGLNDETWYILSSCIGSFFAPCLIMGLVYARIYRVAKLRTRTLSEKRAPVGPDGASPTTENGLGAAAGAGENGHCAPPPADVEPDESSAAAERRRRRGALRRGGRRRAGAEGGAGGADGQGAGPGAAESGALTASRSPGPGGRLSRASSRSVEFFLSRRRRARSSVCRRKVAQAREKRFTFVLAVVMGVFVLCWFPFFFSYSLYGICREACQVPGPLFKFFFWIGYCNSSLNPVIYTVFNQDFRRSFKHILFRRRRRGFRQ
5-HT7, sequence (P34969 whole entry, species assumed): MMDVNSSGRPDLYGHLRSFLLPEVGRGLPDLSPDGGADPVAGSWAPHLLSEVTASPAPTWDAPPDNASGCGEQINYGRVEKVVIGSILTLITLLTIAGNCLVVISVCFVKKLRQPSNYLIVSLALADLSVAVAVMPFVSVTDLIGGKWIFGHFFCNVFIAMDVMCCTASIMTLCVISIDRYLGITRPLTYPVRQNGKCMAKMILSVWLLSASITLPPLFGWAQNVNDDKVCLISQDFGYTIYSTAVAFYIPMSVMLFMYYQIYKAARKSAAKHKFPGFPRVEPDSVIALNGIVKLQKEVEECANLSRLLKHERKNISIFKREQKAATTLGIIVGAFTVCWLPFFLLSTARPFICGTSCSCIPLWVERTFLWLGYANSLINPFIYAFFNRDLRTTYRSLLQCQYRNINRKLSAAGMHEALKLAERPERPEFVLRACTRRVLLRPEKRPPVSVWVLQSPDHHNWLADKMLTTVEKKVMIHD
α-2A(h), sequence (P08913 whole entry): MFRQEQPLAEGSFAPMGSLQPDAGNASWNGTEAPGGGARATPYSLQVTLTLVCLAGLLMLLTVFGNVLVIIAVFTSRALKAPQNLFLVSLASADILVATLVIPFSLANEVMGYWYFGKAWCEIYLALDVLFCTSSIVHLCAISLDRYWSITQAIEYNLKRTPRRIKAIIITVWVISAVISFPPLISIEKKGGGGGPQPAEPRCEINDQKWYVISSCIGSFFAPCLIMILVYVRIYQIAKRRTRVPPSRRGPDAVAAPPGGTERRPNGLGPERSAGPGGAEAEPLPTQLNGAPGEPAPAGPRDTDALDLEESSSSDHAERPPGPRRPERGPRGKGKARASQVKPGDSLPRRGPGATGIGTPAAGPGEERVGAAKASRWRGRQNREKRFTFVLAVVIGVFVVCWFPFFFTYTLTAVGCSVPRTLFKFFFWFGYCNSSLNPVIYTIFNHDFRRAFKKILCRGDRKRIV
D4 receptor, sequence (P21917 whole entry): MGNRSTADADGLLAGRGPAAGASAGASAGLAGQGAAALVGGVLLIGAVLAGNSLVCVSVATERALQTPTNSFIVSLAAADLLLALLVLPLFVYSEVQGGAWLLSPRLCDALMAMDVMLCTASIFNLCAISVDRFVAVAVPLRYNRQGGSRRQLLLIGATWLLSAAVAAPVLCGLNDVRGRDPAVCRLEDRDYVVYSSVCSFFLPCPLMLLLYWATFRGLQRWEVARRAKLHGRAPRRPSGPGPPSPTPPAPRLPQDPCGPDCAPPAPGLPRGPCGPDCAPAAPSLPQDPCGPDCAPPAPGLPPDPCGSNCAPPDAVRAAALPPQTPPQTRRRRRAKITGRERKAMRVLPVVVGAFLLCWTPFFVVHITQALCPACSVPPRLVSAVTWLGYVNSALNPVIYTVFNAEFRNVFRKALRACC
D1 receptor, sequence (P21728 whole entry): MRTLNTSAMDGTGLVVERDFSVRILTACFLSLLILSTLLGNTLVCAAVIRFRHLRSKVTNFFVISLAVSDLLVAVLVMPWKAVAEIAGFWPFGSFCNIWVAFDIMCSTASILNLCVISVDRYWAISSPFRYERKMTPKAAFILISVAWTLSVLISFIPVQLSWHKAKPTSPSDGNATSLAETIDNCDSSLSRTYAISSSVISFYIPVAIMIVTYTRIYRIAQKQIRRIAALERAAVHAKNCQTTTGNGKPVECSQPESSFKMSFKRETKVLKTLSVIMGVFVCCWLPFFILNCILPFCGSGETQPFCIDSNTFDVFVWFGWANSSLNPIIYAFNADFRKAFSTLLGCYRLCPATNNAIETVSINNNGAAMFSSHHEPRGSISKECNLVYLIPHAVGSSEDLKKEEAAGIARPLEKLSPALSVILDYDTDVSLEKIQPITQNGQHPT

For the compound `CCN1CCCC1CNC(=O)c1cc(S(=O)(=O)CC)c(N)cc1OC` (stereo not shown) [Amisulpride, 4-amino-N-(((1-ethyl-2-pyrrolidinyl)methyl)-5-(ethylsulfonyl))-2-methoxybenzamide], the “Permeability (cm/s) pH 7.4” value in series [1] is on record as 2.4 × 10^−11 cm/s. Besides, the “affinity for D1 receptor subtype” value at D1 receptor is “without any affinity”. Further, at D4 receptor, the “affinity for D4 receptor subtype” value is on record as “without any affinity”. Further, the “affinity for D5 receptor subtype” value at D5 receptor is reported as “without any affinity”. Moreover, the “activity at the 5-HT2a receptor” value on 5-HT2a receptor is recorded as “not noted to have any activity”. For the same compound, the “affinity for serotonin receptor subtypes” value in series [2] is reported as “low affinity”. For the same compound, the “affinity for alpha-adrenergic receptor subtypes” value in series [3] was “low affinity”. Moreover, in [4], the “affinity for histamine receptor subtypes” value is on record as “low affinity”. In addition, in the series with muscarinic receptors, the “affinity for muscarinic receptors” value was “low affinity”. The “affinity for sigma sites” value in the series on sigma sites is on record as “low affinity”. For the same compound, the “passive diffusion across a PAMPA membrane (Pe)” value in [5] is recorded as “lowest of 30 psychiatric drugs tested”. For the same compound, in “in vitro” (pH 5), the Papp was found to be 0.00024 ×10⁻⁶ cm/s.
Turning to `CCN1CCCC1CNC(=O)c1cc(S(=O)(=O)CC)c(NC)cc1OC` (stereo not shown) [Compound 102], the pIC50 at dopamine D2 receptors [6] was 8.05; on dopamine D2 receptors [7], 8.09; on α2 (non-selective), 7.02; at α-2A(h), 6.32; on α-2B(h) it was 6.77; on α-2C(h) it was 6.10. Moreover, the pIC50 on 5-HT2a (agonist) is 6.57; at 5-HT2a (antagonist), 6.05; at 5-HT7, 7.13; at D2L it was 8.57; on D2S, 8.08; at D3, 7.96. The pKi is 7.39 at α2 (non-selective); 6.66 at α-2A(h); 6.96 on α-2B(h); 6.62 on α-2C(h); 6.70 on 5-HT2a (agonist); 6.31 on 5-HT2a (antagonist). For the same compound, the pKi at 5-HT7 is 7.57; on D2L, 9.18; at D2S, 8.47; at D3 it was 8.60. Besides, the “difference between novel and familiar object exploration time” value in the series on PCP-treated rats was “increased the difference between novel and familiar object exploration time”. The “known object exploration behavior in rats treated with PCP” value in the series with PCP-treated rats was “able to restore known object exploration behavior in rats treated with PCP to levels similar to untreated rats”. Also, in series [8], the “normalized amphetamine hyperactivity compared to amisulpride” value was “statistically superior to that of amisulpride”. The Papp is 0.021 ×10⁻⁶ cm/s in the series “in vitro” (pH 5) and 0.0052 ×10⁻⁶ cm/s in the series “in vitro” (pH 7.4).
In the case of `CNC(=C[N+](=O)[O-])NCCSCc1ccc(CN(C)C)o1` [Ranitidine, ranitidine], in [1] (pH 5), the “Permeability (cm/s) pH 5” value is reported as 1.1 × 10^−10 cm/s. For the same compound, the “Permeability (cm/s) pH 7.4” value in series [1] is 1.5 × 10^−10 cm/s.
For `CCN1CCC[C@H]1CNC(=O)c1cc(S(=O)(=O)CC)c(NC)cc1OC` [Compound 103, ((S)-4-methylamino-N-((1-ethyl-2-pyrrolidinyl)methyl)-5-(ethylsulfonyl))-2-methoxybenzamide], the pIC50 on α2 (non-selective) was 6.82; at 5-HT2a (agonist), 6.26; at 5-HT2a (antagonist) it was 6.01; on D2L, 8.77; on D2S, 8.85; on D3 it was 8.26. Further, the pKi at α2 (non-selective) was 8.17; at 5-HT2a (agonist), 6.39; on 5-HT2a (antagonist), 6.28; on D2L, 9.39; on D2S, 9.25; on D3, 8.92. In addition, the “difference between novel and familiar object exploration time” value with PCP-treated rats is “increased the difference between novel and familiar object exploration time”. Also, in the series with PCP-treated rats, the “known object exploration behavior in rats treated with PCP” value is “able to restore known object exploration behavior in rats treated with PCP to levels similar to untreated rats”. In series [8], the “normalized amphetamine hyperactivity compared to amisulpride” value was “statistically indistinguishable from that of amisulpride”.
With `CC(C)NCC(O)COc1cccc2ccccc12` (stereo not shown) [Promanolol, propanolol], the Papp in “in vitro” (pH 5) turned out to be 0.031 ×10⁻⁶ cm/s; in “in vitro” (pH 7.4), 7.8 ×10⁻⁶ cm/s.

For orientation: Papp means the rate of passage across a membrane or cell layer, normalised by area and donor concentration. A low value points to slow passage. A word on the pIC50: it is −log10 of the IC50, conventionally taken in molar units. Usually pKi stands for −log10 of the Ki, conventionally taken in molar units. Higher therefore signals a small Ki.
